Assay results published in ChEMBL document CHEMBL1122324, “New antihypertensive cannabinoids” (1983).

Columns and labels:
Details in all cases: route oral
Rattus norvegicus [1] = test: Percentage decrease in systolic blood pressure (heart rate) after 6 hr at 1 mg/kg administered perorally in rats; type: functional, Artery
Rattus norvegicus [2] = test: Percentage decrease in systolic blood pressure (heart rate) after 6 hr at 3 mg/kg administered perorally in rats; type: functional, Artery
Rattus norvegicus [3] = test: Percentage decrease in systolic blood pressure (heart rate) after 4 hr at 1 mg/kg administered perorally in rats; type: functional, Artery
Rattus norvegicus [4] = test: Percentage decrease in systolic blood pressure (heart rate) after 1 hr at 3 mg/kg administered perorally in rats; type: functional, Artery
Rattus norvegicus [5] = test: Cumulative effect on spontaneous motor activity in rats at 3 mg/kg given perorally; type: functional
Rattus norvegicus [6] = test: Effect on spontaneous motor activity in rats after 1 hr at 3 mg/kg given perorally; type: functional
Rattus norvegicus [7] = test: Percentage decrease in systolic blood pressure (heart rate) after 4 hr at 10 mg/kg administered perorally in rats; type: functional, Artery
Rattus norvegicus [8] = test: Percentage decrease in systolic blood pressure (heart rate) after 24 hr at 1 mg/kg administered perorally in rats; type: functional, Artery
Rattus norvegicus [9] = test: Effect on spontaneous motor activity in rats after 2 hr at 1 mg/kg given perorally; type: functional
Rattus norvegicus [10] = test: Effect on spontaneous motor activity in rats after 1 hr at 1 mg/kg given perorally; type: functional
Rattus norvegicus [11] = test: Percentage decrease in systolic blood pressure (heart rate) after 4 hr at 3 mg/kg administered perorally in rats; type: functional, Artery
Rattus norvegicus [12] = test: Effect on spontaneous motor activity in rats after 2 hr at 30 mg/kg given perorally; type: functional
Rattus norvegicus [13] = test: Percentage decrease in systolic blood pressure (heart rate) after 1 hr at 0.3 mg/kg administered perorally in rats; type: functional, Artery
Rattus norvegicus [14] = test: Effect on spontaneous motor activity in rats after 1 hr at 0.3 mg/kg given perorally; type: functional
Rattus norvegicus [15] = test: Effect on spontaneous motor activity in rats after 2 hr at 3 mg/kg given perorally; type: functional
Rattus norvegicus [16] = test: Effect on spontaneous motor activity in rats after 1 hr at 10 mg/kg given perorally; type: functional
Rattus norvegicus [17] = test: Percentage decrease in systolic blood pressure (heart rate) after 24 hr at 10 mg/kg administered perorally in rats; type: functional, Artery
Rattus norvegicus [18] = test: Percentage decrease in systolic blood pressure (heart rate) after 1 hr at 10 mg/kg administered perorally in rats; type: functional, Artery
Rattus norvegicus [19] = test: Percentage decrease in systolic blood pressure (heart rate) after 24 hr at 0.3 mg/kg administered perorally in rats; type: functional, Artery
Rattus norvegicus [20] = test: Cumulative effect on spontaneous motor activity in rats at 300 mg/kg given perorally; type: functional
Rattus norvegicus [21] = test: Effect on spontaneous motor activity in rats after 1 hr at 0.1 mg/kg given perorally; type: functional
Rattus norvegicus [22] = test: Effect on spontaneous motor activity in rats after 2 hr at 10 mg/kg given perorally; type: functional
Rattus norvegicus [23] = test: Percentage decrease in systolic blood pressure (heart rate) after 6 hr at 0.3 mg/kg administered perorally in rats; type: functional, Artery
Rattus norvegicus [24] = test: Effect on spontaneous motor activity in rats after 1 hr at 30 mg/kg given perorally; type: functional
Rattus norvegicus [25] = test: Cumulative effect on spontaneous motor activity in rats at 0.1 mg/kg given perorally; type: functional
Rattus norvegicus [26] = test: Percentage decrease in systolic blood pressure (heart rate) after 4 hr at 0.3 mg/kg administered perorally in rats; type: functional, Artery
Rattus norvegicus [27] = test: Effect on spontaneous motor activity in rats after 2 hr at 0.3 mg/kg given perorally; type: functional
Rattus norvegicus [28] = test: Cumulative effect on spontaneous motor activity in rats at 0.3 mg/kg given perorally; type: functional
Rattus norvegicus [29] = test: Effect on spontaneous motor activity in rats after 2 hr at 0.1 mg/kg given perorally; type: functional
Rattus norvegicus [30] = test: Percentage decrease in systolic blood pressure (heart rate) after 24 hr at 100 mg/kg administered perorally in rats; type: functional, Artery
Rattus norvegicus [31] = test: Percentage decrease in systolic blood pressure (heart rate) after 4 hr at 100 mg/kg administered perorally in rats; type: functional, Artery
Rattus norvegicus [32] = test: percentage decrease in heart rate after 24 hr at a dose of 1 mg/kg administered perorally in rats; type: functional
Rattus norvegicus [33] = test: Percentage decrease in systolic blood pressure after 4 hr at 0.3 mg/kg administered perorally in rats; type: functional, Artery
Rattus norvegicus [34] = test: percentage decrease in heart rate after 24 hr at a dose of 3 mg/kg administered perorally in rats; type: functional
Rattus norvegicus [35] = test: percentage decrease in heart rate after 4 hr at a dose of 30 mg/kg administered perorally in rats; type: functional
Rattus norvegicus [36] = test: Percentage decrease in systolic blood pressure after 1 hr at 0.3 mg/kg administered perorally in rats; type: functional, Artery
Rattus norvegicus [37] = test: Percentage decrease in systolic blood pressure after 24 hr at 3 mg/kg administered perorally in rats; type: functional, Artery
Rattus norvegicus [38] = test: Percentage decrease in systolic blood pressure after 24 hr at 30 mg/kg administered perorally in rats; type: functional, Artery
Rattus norvegicus [39] = test: Percentage decrease in systolic blood pressure after 24 hr at 0.3 mg/kg administered perorally in rats; type: functional, Artery
Rattus norvegicus [40] = test: Percentage decrease in systolic blood pressure after 6 hr at 1 mg/kg administered perorally in rats; type: functional, Artery
Rattus norvegicus [41] = test: percentage decrease in heart rate after 6 hr at a dose of 30 mg/kg administered perorally in rats; type: functional
Rattus norvegicus [42] = test: percentage decrease in heart rate after 6 hr at a dose of 10 mg/kg administered perorally in rats; type: functional
Rattus norvegicus [43] = test: percentage decrease in heart rate after 1 hr at a dose of 30 mg/kg administered perorally in rats; type: functional
Rattus norvegicus [44] = test: percentage decrease in heart rate after 24 hr at a dose of 10 mg/kg administered perorally in rats; type: functional
Rattus norvegicus [45] = test: Percentage decrease in systolic blood pressure after 24 hr at 1 mg/kg administered perorally in rats; type: functional, Artery
Rattus norvegicus [46] = test: percentage decrease in heart rate after 1 hr at a dose of 3 mg/kg administered perorally in rats; type: functional
Rattus norvegicus [47] = test: percentage decrease in heart rate after 6 hr at a dose of 0.3 mg/kg administered perorally in rats; type: functional
Rattus norvegicus [48] = test: Percentage decrease in systolic blood pressure after 24 hr at 10 mg/kg administered perorally in rats; type: functional, Artery
Rattus norvegicus [49] = test: Percentage decrease in systolic blood pressure after 6 hr at 0.3 mg/kg administered perorally in rats; type: functional, Artery
Rattus norvegicus [50] = test: Percentage decrease in systolic blood pressure after 1 hr at 30 mg/kg administered perorally in rats; type: functional, Artery
Rattus norvegicus [51] = test: Percentage decrease in systolic blood pressure after 1 hr at 1 mg/kg administered perorally in rats; type: functional, Artery
Rattus norvegicus [52] = test: percentage decrease in heart rate after 1 hr at a dose of 1 mg/kg administered perorally in rats; type: functional
Rattus norvegicus [53] = test: Percentage decrease in systolic blood pressure after 1 hr at 3 mg/kg administered perorally in rats; type: functional, Artery
Rattus norvegicus [54] = test: Percentage decrease in systolic blood pressure after 6 hr at 30 mg/kg administered perorally in rats; type: functional, Artery
Rattus norvegicus [55] = test: percentage decrease in heart rate after 4 hr at a dose of 10 mg/kg administered perorally in rats; type: functional
Rattus norvegicus [56] = test: percentage decrease in heart rate after 4 hr at a dose of 3 mg/kg administered perorally in rats; type: functional
Rattus norvegicus [57] = test: percentage decrease in heart rate after 4 hr at a dose of 1 mg/kg administered perorally in rats; type: functional
Rattus norvegicus [58] = test: percentage decrease in heart rate after 6 hr at a dose of 3 mg/kg administered perorally in rats; type: functional
Rattus norvegicus [59] = test: Percentage decrease in systolic blood pressure after 6 hr at 10 mg/kg administered perorally in rats; type: functional, Artery
Rattus norvegicus [60] = test: percentage decrease in heart rate after 4 hr at a dose of 0.3 mg/kg administered perorally in rats; type: functional
Rattus norvegicus [61] = test: percentage decrease in heart rate after 24 hr at a dose of 0.3 mg/kg administered perorally in rats; type: functional
Rattus norvegicus [62] = test: Percentage decrease in systolic blood pressure after 4 hr at 10 mg/kg administered perorally in rats; type: functional, Artery
Rattus norvegicus [63] = test: percentage decrease in heart rate after 1 hr at a dose of 10 mg/kg administered perorally in rats; type: functional
Rattus norvegicus [64] = test: Percentage decrease in systolic blood pressure after 4 hr at 30 mg/kg administered perorally in rats; type: functional, Artery
Rattus norvegicus [65] = test: Percentage decrease in systolic blood pressure after 1 hr at 10 mg/kg administered perorally in rats; type: functional, Artery
Rattus norvegicus [66] = test: percentage decrease in heart rate after 1 hr at a dose of 0.3 mg/kg administered perorally in rats; type: functional
Rattus norvegicus [67] = test: Percentage decrease in systolic blood pressure after 4 hr at 1 mg/kg administered perorally in rats; type: functional, Artery
Rattus norvegicus [68] = test: Percentage decrease in systolic blood pressure after 4 hr at 3 mg/kg administered perorally in rats; type: functional, Artery
Rattus norvegicus [69] = test: percentage decrease in heart rate after 6 hr at a dose of 1 mg/kg administered perorally in rats; type: functional
Rattus norvegicus [70] = test: Percentage decrease in systolic blood pressure after 6 hr at 3 mg/kg administered perorally in rats; type: functional, Artery

With `CCCCCCCc1cc(O)c2c(c1)OC(C)(C)c1ccc(C)cc1-2` the “Decrease in Systolic blood pressure” value (Rattus norvegicus [1]) was 33%, the “Decrease in Systolic blood pressure” value (Rattus norvegicus [2]) was 38% and the “Decrease in Systolic blood pressure” value (Rattus norvegicus [3]) was 20%. For the same compound, the “Decrease in Systolic blood pressure” value (Rattus norvegicus [4]) was 3%, the Activity (Rattus norvegicus [5]) was -20% and the Activity (Rattus norvegicus [6]) was -20%. The “Decrease in Systolic blood pressure” value (Rattus norvegicus [7]) was 58%, the “Decrease in Systolic blood pressure” value (Rattus norvegicus [8]) was -7% and the Activity (Rattus norvegicus [9]) was 87%. For the same compound, the Activity (Rattus norvegicus [10]) was -32%, the “Decrease in Systolic blood pressure” value (Rattus norvegicus [11]) was 44% and the Activity (Rattus norvegicus [12]) was -94%. The “Decrease in Systolic blood pressure” value (Rattus norvegicus [13]) was 3%, the Activity (Rattus norvegicus [14]) was -21% and the Activity (Rattus norvegicus [15]) was -17%. The Activity (Rattus norvegicus [16]) was -46%, the “Decrease in Systolic blood pressure” value (Rattus norvegicus [17]) was 29% and the “Decrease in Systolic blood pressure” value (Rattus norvegicus [18]) was 9%. For the same compound, the “Decrease in Systolic blood pressure” value (Rattus norvegicus [19]) was 0%, the Activity (Rattus norvegicus [20]) was -89% and the Activity (Rattus norvegicus [21]) was -3%. The Activity (Rattus norvegicus [22]) was -98%, the “Decrease in Systolic blood pressure” value (Rattus norvegicus [23]) was 2% and the Activity (Rattus norvegicus [24]) was -88%. For the same compound, the Activity (Rattus norvegicus [25]) was -2%, the “Decrease in Systolic blood pressure” value (Rattus norvegicus [26]) was 10% and the Activity (Rattus norvegicus [27]) was 28%. For the same compound, the Activity (Rattus norvegicus [28]) was -17% and the Activity (Rattus norvegicus [29]) was 10%.
In the case of `CCCCCc1cc(O)c2c(c1)OC(C)(C)[C@@H]1CCC(C)=C[C@@H]21` [DRONABINOL], the “Decrease in Systolic blood pressure” value (Rattus norvegicus [30]) is reported as 21% and the “Decrease in Systolic blood pressure” value (Rattus norvegicus [31]) is reported as 39%.
In the case of `C#CCN1CCC2=C(C1)c1c(O)cc(C(C)CCCc3ccc(F)cc3)cc1OC2(C)C` (stereo not given), the Heart rate (Rattus norvegicus [32]) is reported as -18%, the “Decrease in Systolic blood pressure” value (Rattus norvegicus [33]) is reported as -7% and the Heart rate (Rattus norvegicus [34]) is reported as -14%. The Heart rate (Rattus norvegicus [35]) was 16%, the “Decrease in Systolic blood pressure” value (Rattus norvegicus [36]) was -5% and the “Decrease in Systolic blood pressure” value (Rattus norvegicus [37]) was 11%. The “Decrease in Systolic blood pressure” value (Rattus norvegicus [38]) was 43%, the “Decrease in Systolic blood pressure” value (Rattus norvegicus [39]) was -3% and the “Decrease in Systolic blood pressure” value (Rattus norvegicus [40]) was 5%. The Heart rate (Rattus norvegicus [41]) was 36%, the Heart rate (Rattus norvegicus [42]) was 1% and the Heart rate (Rattus norvegicus [43]) was 5%. The Heart rate (Rattus norvegicus [44]) was -6%, the “Decrease in Systolic blood pressure” value (Rattus norvegicus [45]) was 9% and the Heart rate (Rattus norvegicus [46]) was -7%. The Heart rate (Rattus norvegicus [47]) was -12%, the “Decrease in Systolic blood pressure” value (Rattus norvegicus [48]) was 20% and the “Decrease in Systolic blood pressure” value (Rattus norvegicus [49]) was -5%. For the same compound, the “Decrease in Systolic blood pressure” value (Rattus norvegicus [50]) was 33%, the “Decrease in Systolic blood pressure” value (Rattus norvegicus [51]) was 1% and the Heart rate (Rattus norvegicus [52]) was -9%. For the same compound, the “Decrease in Systolic blood pressure” value (Rattus norvegicus [53]) was 8%, the “Decrease in Systolic blood pressure” value (Rattus norvegicus [54]) was 26% and the Heart rate (Rattus norvegicus [55]) was -2%. For the same compound, the Heart rate (Rattus norvegicus [56]) was 10%, the Heart rate (Rattus norvegicus [57]) was 3% and the Heart rate (Rattus norvegicus [58]) was -7%. The “Decrease in Systolic blood pressure” value (Rattus norvegicus [59]) was 20%, the Heart rate (Rattus norvegicus [60]) was -10% and the Heart rate (Rattus norvegicus [61]) was -5%. The “Decrease in Systolic blood pressure” value (Rattus norvegicus [62]) was 30%, the Heart rate (Rattus norvegicus [63]) was -3% and the “Decrease in Systolic blood pressure” value (Rattus norvegicus [64]) was 23%. For the same compound, the “Decrease in Systolic blood pressure” value (Rattus norvegicus [65]) was 34%, the Heart rate (Rattus norvegicus [66]) was -29% and the “Decrease in Systolic blood pressure” value (Rattus norvegicus [67]) was 17%. For the same compound, the “Decrease in Systolic blood pressure” value (Rattus norvegicus [68]) was 27%, the Heart rate (Rattus norvegicus [69]) was 5% and the “Decrease in Systolic blood pressure” value (Rattus norvegicus [70]) was 9%.
